Reference: ChEMBL document CHEMBL2150898, “Discovery of AM-1638: A Potent and Orally Bioavailable GPR40/FFA1 Full Agonist” (ACS Med Chem Lett, 2012)
pEC50: −log10 of the molar value. Calls of active or inactive are those of the source. The calls are words filed in the database; no cut-off is given here.

What was measured:
[1] = target: T1, Free fatty acid receptor 1 (Homo sapiens, UniProt O14842); test: Agonist activity at GPR40 expressed in CHO cells after 20 seconds by aequorin bioluminescence assay in presence of 0.1 % human serum; format: functional, cell-based
[2] = target: T1, Free fatty acid receptor 1; test: Agonist activity at GPR40 expressed in CHO cells assessed as intrinsic efficacy after 20 seconds by aequorin bioluminescence assay in presence of 0.1 % human serum relative to AM-1638; format: functional, cell-based
Mus musculus [3] = test: Antidiabetic activity in DIO BDF mouse model assessed as reduction in blood glucose-challenge excursion at 60 mg/kg, po administered 1 hr prior glucose-challenge challenge measured after 1 hr by OGTT ( Rvb = 462 mg/dl ); format: functional
Mus musculus [4] = test: Antidiabetic activity in DIO BDF mouse model assessed as increase in plasma insulin level at 60 mg/kg, po administered 1 hr prior glucose-challenge challenge measured after 1 hr by ELISA; format: functional, organism-based; set-up: dose 60 mg/kg
Mus musculus [5] = test: Antidiabetic activity in DIO BDF mouse model assessed as improvement in glucose-challenge AUC(0 to 60 mins) at 60 mg/kg, po administered 1 hr prior glucose-challenge challenge measured after 1 hr by OGTT; format: functional
[6] = target: T1, Free fatty acid receptor 1; test: Agonist activity at GPR40 expressed in CHO cells after 20 seconds by aequorin bioluminescence assay in presence of 100 % human serum; format: functional, cell-based
[7] = Clearance in rat at 2 mg/kg, po and 0.5 mg/kg, iv; format: ADME, organism-based; settings: in vivo
[8] = Clearance in mouse at 5 mg/kg, po and 1 mg/kg, iv; format: ADME, organism-based; settings: in vivo
[9] = Clearance in cynomolgus monkey at 2 mg/kg, po and 0.5 mg/kg, iv; format: ADME, organism-based, Macaca fascicularis; settings: in vivo
[10] = Half life in cynomolgus monkey at 0.5 mg/kg, iv; format: ADME, organism-based, Macaca fascicularis; set-up: dose 0.5 mg/kg, route intravenous; settings: in vivo
[11] = Half life in mouse at 1 mg/kg, iv; format: ADME, organism-based; set-up: dose 1 mg/kg, route intravenous; settings: in vivo
[12] = Tmax in cynomolgus monkey at 2 mg/kg, po and 0.5 mg/kg, iv; format: ADME, organism-based, Macaca fascicularis; settings: in vivo
[13] = Cmax in cynomolgus monkey at 2 mg/kg, po; format: ADME, organism-based, Macaca fascicularis; set-up: dose 2 mg/kg, route oral; settings: in vivo
[14] = Tmax in mouse at 5 mg/kg, po and 1 mg/kg, iv; format: ADME, organism-based; settings: in vivo
[15] = Tmax in rat at 2 mg/kg, po and 0.5 mg/kg, iv; format: ADME, organism-based; settings: in vivo
[16] = Half life in rat at 0.5 mg/kg, iv; format: ADME, organism-based; set-up: dose 0.5 mg/kg, route intravenous; settings: in vivo
[17] = Oral bioavailability in rat at 2 mg/kg; format: ADME, organism-based; settings: in vivo
[18] = Oral bioavailability in mouse at 5 mg/kg; format: ADME, organism-based; settings: in vivo
[19] = Cmax in rat at 2 mg/kg, po; format: ADME, organism-based; set-up: dose 2 mg/kg, route oral; settings: in vivo
[20] = Cmax in mouse at 5 mg/kg, po; format: ADME, organism-based; set-up: dose 5 mg/kg, route oral; settings: in vivo
Mus musculus [21] = test: Antidiabetic activity in DIO BDF mouse model assessed as increase in insulin AUC at 60 mg/kg, po administered 1 hr prior glucose-challenge challenge measured after 1 hr by ELISA; format: functional, organism-based; set-up: dose 60 mg/kg
[22] = Oral bioavailability in cynomolgus monkey at 2 mg/kg; format: ADME, organism-based, Macaca fascicularis; settings: in vivo

T1 sequence (O14842 whole entry): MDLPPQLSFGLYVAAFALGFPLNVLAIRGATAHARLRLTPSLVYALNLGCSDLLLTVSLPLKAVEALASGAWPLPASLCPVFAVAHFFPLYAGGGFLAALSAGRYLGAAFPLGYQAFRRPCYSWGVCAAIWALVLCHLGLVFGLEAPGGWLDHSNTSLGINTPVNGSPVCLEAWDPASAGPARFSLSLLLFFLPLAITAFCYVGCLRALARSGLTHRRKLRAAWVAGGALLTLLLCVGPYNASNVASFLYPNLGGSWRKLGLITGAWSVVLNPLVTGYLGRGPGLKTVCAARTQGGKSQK

COc1ccc(F)c(-c2ccc(COc3cccc([C@@H](CC(=O)O)C4CCCCC4)c3)cc2C(C)(C)C)c1
pEC50 [1]: 5.68
Efficacy [2]: 41%

CC#C[C@H](CC(=O)O)c1ccc(OCc2ccc(-c3cccc(OC)c3)cc2)cc1
pEC50 [1]: 5.40
Efficacy [2]: 99%

COc1ccc(F)c(-c2ccc(COc3cccc([C@H](C)CC(=O)O)c3)cc2C(C)(C)C)c1
pEC50 [1]: 6.11
Efficacy [2]: 107%

CCC[C@H](CC(=O)O)c1cccc(OCc2ccc(-c3cc(OC)ccc3F)c(C(C)(C)C)c2)c1
pEC50 [1]: 6.16
Efficacy [2]: 94%

CC[C@H](CC(=O)O)c1cccc(OCc2ccc(-c3cc(OC)ccc3F)c(C(C)(C)C)c2)c1
pEC50 [1]: 6.17
Efficacy [2]: 110%

COc1ccc(F)c(-c2ccc(COc3cccc([C@@H](CC(=O)O)C4CCC4)c3)cc2C(C)(C)C)c1
pEC50 [1]: 6.38
Efficacy [2]: 106%

CC#C[C@@H](CC(=O)O)c1ccc(OCc2cccc(-c3ccc(C(F)(F)F)cc3)c2)cc1
Activity (Mus musculus [3]): 317 mg/dL
Activity (Mus musculus [4]): inactive
Activity (Mus musculus [5]): 34%

CC#CC(CC(=O)O)c1ccc(OCc2ccc(-c3ccccc3)cc2)cc1 (racemic)
pEC50 [1]: 5.11
Efficacy [2]: 105%

COc1ccc(F)c(-c2ccc(COc3cccc([C@@H](CC(=O)O)c4ccccc4)c3)cc2C(C)(C)C)c1
pEC50 [1]: 5.92
Efficacy [2]: 80%

COc1ccc(F)c(-c2ccc(COc3cccc([C@@H](CC(=O)O)C(F)(F)F)c3)cc2C(C)(C)C)c1
pEC50 [1]: 5.68
Efficacy [2]: 111%

COc1ccc(F)c(-c2ccc(COc3cccc(CCC(=O)O)c3)cc2)c1
pEC50 [1]: 5.92
Efficacy [2]: 104%

COc1ccc(F)c(-c2ccc(COc3cccc([C@H](CC(=O)O)C4CC4)c3)cc2C2=CCCC2(C)C)c1
pEC50 [1]: 5.96
pEC50 [6]: 4.47
Efficacy [2]: 76%

COc1ccc(F)c(-c2ccc(COc3cccc([C@@H](CC(=O)O)C4CC4)c3)cc2C(C)(C)C)c1
pEC50 [1]: 6.43
pEC50 [6]: 5.72
Efficacy [2]: 103%

CC#CC(CC(=O)O)c1ccc(OCc2ccc(-c3cccc(OC)c3)cc2)cc1 (racemic)
pEC50 [1]: 5.64
Efficacy [2]: 98%

CC#C[C@H](CC(=O)O)c1ccc(OCc2ccc(-c3cc(OC)ccc3F)cc2)cc1
pEC50 [1]: 5.64
Efficacy [2]: 97%

CC/C=C\C/C=C\C/C=C\C/C=C\C/C=C\C/C=C\CCC(=O)O [DOCONEXENT]
pEC50 [1]: 4.44
Efficacy [2]: 67%

COc1ccc(F)c(-c2ccc(COc3cccc([C@@H](CC(=O)O)C4CC4)c3)cc2)c1
pEC50 [1]: 6.32
pEC50 [6]: 4.42
Efficacy [2]: 107%

COc1ccc(F)c(-c2ccc(COc3cccc(CCC(=O)O)c3)cc2C(C)(C)C)c1
pEC50 [1]: 6.05
Efficacy [2]: 100%

COc1ccc(F)c(-c2ccc(COc3cccc([C@@H](CC(=O)O)C4CC4)c3)cc2C2=CCCC2(C)C)c1
clearance [7]: 15.2 mL/min/kg
clearance [8]: 3 mL/min/kg
clearance [9]: 13.5 mL/min/kg
Activity (Mus musculus [3]): 204 mg/dL
half-life [10]: 2.1 h
half-life [11]: 2 h
Tmax [12]: 2 h
Activity (Mus musculus [4]): Active
Cmax [13]: 5.1 µM
Tmax [14]: 1 h
Activity (Mus musculus [5]): 46%
Tmax [15]: 3.5 h
half-life [16]: 1.8 h
bioavailability [17]: 72%
pEC50 [6]: 6.15
bioavailability [18]: > 100%
Cmax [19]: 3.6 µM
Cmax [20]: 14 µM
Activity (Mus musculus [21]): Active
bioavailability [22]: 71%

COc1ccc(F)c(-c2ccc(COc3ccc(CCC(=O)O)cc3)cc2)c1
pEC50 [1]: 5.72
Efficacy [2]: 96%

CC#C[C@@H](CC(=O)O)c1ccc(OCc2ccc(-c3cccc(OC)c3)cc2)cc1
pEC50 [1]: 6.19
Efficacy [2]: 47%

COc1ccc(F)c(-c2ccc(COc3cccc([C@@H](CC(=O)O)C(C)C)c3)cc2C(C)(C)C)c1
pEC50 [1]: 5.66
Efficacy [2]: 86%

COc1ccc(F)c(-c2ccc(COc3cccc([C@@H](CC(=O)O)C4CCCC4)c3)cc2C(C)(C)C)c1
pEC50 [1]: 5.88
Efficacy [2]: 59%
